Data reported in article PMC8188423, “Investigating the phosphinic acid tripeptide mimetic DG013A as a tool compound inhibitor of the M1-aminopeptidase ERAP1” (Bioorganic & Medicinal Chemistry Letters, 2021).
Where two headings read alike, the source gives them in different places.

Experiments:
[1] = test system: Caco-2 human colon carcinoma cell line; test: Caco-2 permeability assay; type: in vitro ADME; details: SI table, remark in Recovery A:B cell
Description: (§1) Whether the inhibition of ERAP1 by 1 would translate to in-cell activity would depend on its permeability, as well as its affinity.
(§2) Papp (apparent permeability) was determined in the Caco-2 human colon carcinoma cell line (ATCC). Cells were maintained (DMEM with 10% fetal bovine serum, penicillin, and streptomycin) in a humidified atmosphere with 5% CO2/95% air for 10 days. Cells were plated out onto a cell culture assembly plate (Millipore, UK), and monolayer confluency was checked using a TEER electrode prior to the assay. Media was washed off and replaced in the appropriate apical and basal wells with HBSS buffer (pH 7.4) containing compound (10 μM, 1% DMSO). The Caco-2 plate was incubated for 2 h at 37 °C, and Lucifer Yellow was used to confirm membrane integrity after the assay. Samples from the apical and basolateral chambers were analyzed using a Waters TQ-S LC-MS/MS system.

[2] = Caco-2 permeability assay; type: in vitro ADME, human; details: human; for recovery at 2 h, 10 μM: Caco-2, pH 7.4, SI table; for Papp B→A at 2 h, 10 μM / Papp A→B at 2 h, 10 μM: Caco-2, pH 7.4; for Papp B→A at 2 h, 10 μM: SI table; for Papp A→B at 2 h, 10 μM: apical to basolateral, limit of quantification 1.0 x 10^−6 cm/s, read-out: CACO2 Papp A:B
Description: as §1, §2

human ERAP2 = human ERAP2 (Homo sapiens, UniProt Q6P179); test: ERAP2 R-AMC aminopeptidase assay; details: ERAP2 10 nM, R-AMC 10 µM, pH8.0, 30 min
Chain of human ERAP2 (Q6P179 whole entry): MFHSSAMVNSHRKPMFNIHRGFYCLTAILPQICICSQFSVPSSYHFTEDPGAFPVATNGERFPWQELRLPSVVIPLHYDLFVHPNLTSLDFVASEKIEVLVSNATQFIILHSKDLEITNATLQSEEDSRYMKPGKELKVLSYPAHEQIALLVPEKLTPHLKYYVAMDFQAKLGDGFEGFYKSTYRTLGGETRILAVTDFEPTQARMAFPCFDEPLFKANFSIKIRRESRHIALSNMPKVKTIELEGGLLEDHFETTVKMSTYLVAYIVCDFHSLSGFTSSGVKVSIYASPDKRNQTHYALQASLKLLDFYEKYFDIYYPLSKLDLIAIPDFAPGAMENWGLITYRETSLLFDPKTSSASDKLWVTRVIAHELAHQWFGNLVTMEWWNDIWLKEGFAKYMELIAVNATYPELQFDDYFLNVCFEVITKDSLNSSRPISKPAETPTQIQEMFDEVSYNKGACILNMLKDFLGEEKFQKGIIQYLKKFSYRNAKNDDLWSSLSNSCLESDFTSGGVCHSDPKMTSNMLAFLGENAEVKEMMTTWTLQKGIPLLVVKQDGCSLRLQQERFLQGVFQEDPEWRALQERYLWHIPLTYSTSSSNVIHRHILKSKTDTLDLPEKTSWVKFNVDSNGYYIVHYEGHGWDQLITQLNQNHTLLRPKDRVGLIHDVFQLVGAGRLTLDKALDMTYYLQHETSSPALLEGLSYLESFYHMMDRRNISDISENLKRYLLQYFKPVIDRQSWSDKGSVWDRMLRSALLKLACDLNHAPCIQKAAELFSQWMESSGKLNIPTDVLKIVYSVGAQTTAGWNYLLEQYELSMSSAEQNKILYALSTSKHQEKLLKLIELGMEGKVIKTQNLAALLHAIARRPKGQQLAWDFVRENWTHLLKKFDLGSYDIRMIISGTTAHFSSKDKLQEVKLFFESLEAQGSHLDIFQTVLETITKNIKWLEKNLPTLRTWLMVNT

stability observation in Caco-2 assay A:B [1]	recovery at 2 h, 10 μM ([2]; read-out: Recovery A:B) [%]	recovery at 2 h, 10 μM ([2]; read-out: Recovery B:A) [%]	Papp B→A at 2 h, 10 μM [2] [×10⁻⁶ cm/s]	Papp A→B at 2 h, 10 μM [2] [×10⁻⁶ cm/s]	ERAP2 pIC50 ± SEM (human ERAP2)	IC50 (human ERAP2; read-out: ERAP2 IC50 (geometric mean)) [µM]	efflux ratio at 2 h, 10 μM ([2]; Caco-2, pH 7.4, PappB:A/PappA:B, read-out: CACO2 ER (efflux ratio))	SMILES
–	83	96	< 1	< 1	–	–	–	CC(C)CC(CP(=O)(O)[C@@H](N)CCc1ccccc1)C(=O)N[C@@H](Cc1c[nH]c2ccccc12)C(=O)O (stereo in doubt) [compound 18, ((2R)-2-((((R)-1-amino-3-phenylpropyl)(hydroxy)phosphoryl)methyl)-4-methylpentanoyl)-L-tryptophan]
–	97	100	< 1	< 1	–	–	–	CC(C)C[C@H](CP(=O)(O)[C@@H](N)CCc1ccccc1)C(=O)N[C@@H](Cc1c[nH]c2ccccc12)C(N)=O [DG013A 1, ((S)-2-(((S)-1-amino-3-(1H-indol-3-yl)-1-oxopropan-2-yl)carbamoyl)-4-methylpentyl)((R)-1-amino-3-phenylpropyl)phosphinic acid, reference compound]
–	83	90	< 1	< 1	–	–	–	CC(C)C[C@@H](CP(=O)(O)[C@@H](N)CCc1ccccc1)C(=O)N[C@@H](Cc1c[nH]c2ccccc12)C(N)=O [DG013B 2, reference compound]

The remaining lines, values behind:

SMILES	stability observation in Caco-2 assay A:B [1]	recovery at 2 h, 10 μM ([2]; read-out: Recovery A:B) [%]	recovery at 2 h, 10 μM ([2]; read-out: Recovery B:A) [%]	Papp B→A at 2 h, 10 μM [2] [×10⁻⁶ cm/s]	Papp A→B at 2 h, 10 μM [2] [×10⁻⁶ cm/s]	ERAP2 pIC50 ± SEM (human ERAP2)	IC50 (human ERAP2; read-out: ERAP2 IC50 (geometric mean)) [µM]	efflux ratio at 2 h, 10 μM ([2]; Caco-2, pH 7.4, PappB:A/PappA:B, read-out: CACO2 ER (efflux ratio))
COC(=O)[C@H](Cc1c[nH]c2ccccc12)NC(=O)C(CC(C)C)CP(=O)(O)[C@@H](N)CCc1ccccc1 (stereo in doubt) [compound 17, ((R)-2-(((S)-3-(1H-indol-3-yl)-1-methoxy-1-oxopropan-2-yl)carbamoyl)-4-methylpentyl)((R)-1-amino-3-phenylpropyl)phosphinic acid]	Ester hydrolysis observed	2	84	< 1	< 1	–	–	–
CC(C)C[C@H](CP(=O)(O)[C@H](CCc1ccccc1)NC(=O)OCc1ccccc1)C(=O)N[C@@H](Cc1c[nH]c2ccccc12)C(N)=O [compound 3, (2S)-2-((((1S)-2-amino-1-(1H-indol-3-ylmethyl)-2-oxo-ethyl)carbamoyl)-4-methyl-pentyl)-((1R)-1-(benzyloxycarbonylamino)-3-phenyl-propyl)phosphinic acid]	–	79	84	4.3	< 1	< 3.66	> 220	> 12
